Earlier results, collected in US5360612A, “Pharmaceutical compositions containing triazole derivatives for rectal administration” (Pfizer Inc., priority 1992, dated 1994).

Settings: in vivo

CN[C@@H](C)[C@H](O)c1ccccc1 [ephedrine]
bioavailability from suppository fatty bases: do not show good bioavailability
